The target of test [1] is MeCP2_MBD binding to 5-mCpG containing DNA (Homo sapiens (Human), UniProt P51608). In words: DNA-protein binding assay, MeCP2_MBD to methylated oligonucleotide. Particulars: His-tagged MeCP2_MBD, read-out: MeCP2 Binding Inhibition (IC50 in μM). The protocol:
(§1) To determine if the “lead” compounds directly interfere with MBD2 binding to ^5−m CpG containing DNA, each “lead” compound is tested for its ability to inhibit such binding using a DNA-protein binding assay. For this assay, a biotinylated and methylated oligonucleotide substrate is bound to a neutravidin-coated high binding capacity 96-well plate. His-tagged MBD2_MBD or MeCP2_MBD binds to the methylated oligonucleotide. An Anti-His-HRP conjugated antibody is used to detect bound protein. Introducing the “lead” compounds into the reaction mix at various concentrations provides a MBD2_MBD-DNA binding curve from which an IC50 is derived.
(§2) DNA binding assays using recombinant MBDs. […] After centrifugation in a microfuge, the soluble protein fraction, containing MBD2, was recovered. A similar approach was used for producing cloned recombinant MeCP2. […] After washing four times with binding buffer and drying wells, TMB is added to each well followed by 1 N HCl, and A450 is measured on a microplate reader. The IC50 for each “lead” compound is derived from the DNA-protein binding curve.

The next test deals with recombinant DNMT1 (Homo sapiens (Human), UniProt P26358). In words: DNA methyltransferase activity assay with recombinant DNMT1. Particulars: for DNMT1 Inhibition (IC50 in μM): recombinant DNMT1. The test is classed as biochemical. From the text: (§3) The outputs of these experiments were Ki's for each of the DNMT enzymes. When considered along with potency and efficacy data from the screening assays, the results of analyses of “lead” compounds for interference with MBD2 binding to ^5−m CpG-containing DNA, for direct binding to ^5−mCpG-containing DNA, and for inhibition of DNMTs allow prioritization of “lead” compounds. Ideally, “lead” compounds that activate expression from GSTP1 alleles with CpG island hypermethylation at sub-μM concentrations, target MBD2 directly, and fail to inhibit DNMTs, are high-priority “lead” compounds.
recombinant DNMT1, sequence (P26358 whole entry): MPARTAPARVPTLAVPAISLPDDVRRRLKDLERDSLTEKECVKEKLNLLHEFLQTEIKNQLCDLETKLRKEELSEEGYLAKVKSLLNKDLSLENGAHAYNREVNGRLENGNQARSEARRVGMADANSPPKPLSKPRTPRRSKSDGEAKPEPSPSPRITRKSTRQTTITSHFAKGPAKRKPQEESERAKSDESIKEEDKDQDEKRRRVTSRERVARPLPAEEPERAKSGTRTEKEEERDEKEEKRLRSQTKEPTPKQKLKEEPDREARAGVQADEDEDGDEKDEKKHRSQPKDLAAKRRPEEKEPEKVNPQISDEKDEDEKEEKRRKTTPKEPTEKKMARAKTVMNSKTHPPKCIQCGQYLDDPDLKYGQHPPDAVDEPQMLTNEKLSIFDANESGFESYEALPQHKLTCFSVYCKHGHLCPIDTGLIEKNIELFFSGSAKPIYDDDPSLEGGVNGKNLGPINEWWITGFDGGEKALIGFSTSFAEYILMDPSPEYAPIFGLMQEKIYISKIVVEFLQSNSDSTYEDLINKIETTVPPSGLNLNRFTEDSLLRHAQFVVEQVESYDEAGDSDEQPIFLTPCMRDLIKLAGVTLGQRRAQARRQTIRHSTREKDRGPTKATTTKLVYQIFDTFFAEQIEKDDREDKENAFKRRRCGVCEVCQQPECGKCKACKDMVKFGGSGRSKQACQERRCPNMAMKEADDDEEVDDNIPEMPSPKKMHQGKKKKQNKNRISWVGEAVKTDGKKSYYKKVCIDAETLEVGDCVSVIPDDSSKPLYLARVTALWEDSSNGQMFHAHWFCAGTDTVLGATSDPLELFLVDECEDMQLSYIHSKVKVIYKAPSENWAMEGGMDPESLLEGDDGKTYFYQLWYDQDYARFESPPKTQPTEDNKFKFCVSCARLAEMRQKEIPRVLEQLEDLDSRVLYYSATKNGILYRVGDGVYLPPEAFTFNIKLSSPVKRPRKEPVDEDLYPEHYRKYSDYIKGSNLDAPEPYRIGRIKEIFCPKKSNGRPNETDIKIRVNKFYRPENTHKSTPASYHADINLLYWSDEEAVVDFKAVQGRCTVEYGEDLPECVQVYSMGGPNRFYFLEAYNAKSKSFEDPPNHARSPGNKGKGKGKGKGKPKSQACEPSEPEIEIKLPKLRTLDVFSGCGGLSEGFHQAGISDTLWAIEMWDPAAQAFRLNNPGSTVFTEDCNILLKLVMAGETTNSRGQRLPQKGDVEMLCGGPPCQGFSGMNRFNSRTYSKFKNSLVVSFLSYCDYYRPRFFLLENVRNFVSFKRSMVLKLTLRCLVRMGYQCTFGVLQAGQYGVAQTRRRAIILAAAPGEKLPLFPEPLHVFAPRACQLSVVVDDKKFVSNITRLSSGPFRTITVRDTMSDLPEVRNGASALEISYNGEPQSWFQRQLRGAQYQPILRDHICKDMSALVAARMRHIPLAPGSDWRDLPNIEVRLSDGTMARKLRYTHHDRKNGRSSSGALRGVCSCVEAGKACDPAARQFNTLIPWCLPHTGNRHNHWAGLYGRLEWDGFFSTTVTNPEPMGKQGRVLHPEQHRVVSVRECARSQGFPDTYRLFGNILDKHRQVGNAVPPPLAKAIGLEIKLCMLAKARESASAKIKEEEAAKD
DNMT assays using recombinant DNMT1, DNMT3a, and DNMT3b. To produce recombinant DNMT1, full-length DNMT1 cDNA was amplified in two segments by RT-PCR from human brain poly A+ RNA (BD Clontech). Amplification of the upstream segment was performed using the PCR primers (5′-[…]-3′ (SEQ ID NO:4) and 5′-[…]-3′ (SEQ ID NO:5)), and amplification of the downstream segment was performed using the PCR primers (5′-[…]-3′ (SEQ ID NO:6) and 5′-[…]-3′ (SEQ ID NO:7)). The upstream and downstream segments were subcloned into the pCMVscript® vector (Stratagene), and assembled using an internal BstEII site that is common to both segments to create pCMVscript-DNMT1. PCR primers containing EcoRI and KpnI sites (5′-GAATTCCCGGCGCGTACCG-3′ (SEQ ID NO:8) and 5′-[…]-3′ (SEQ ID NO:9)) were used to amplify the DNMT1 coding sequence from pCMVscript-DNMT1. […] This pFB6H-DNMT1 construct was used to transform DH10Bac™ E. coli competent cells (Invitrogen) to generate a recombinant expression bacmid via site-specific transposition. The DNMT1 expression bacmid was transfected into Sf9 insect cells to produce recombinant DNMT1 baculovirus particles, which were subsequently used to infect additional Sf9 cells (1 MOI, 48 hours) for protein production. Recombinant His(6)-(SEQ ID NO:21)-DNMT1 was recovered by Ni2+ affinity chromatography. After lysis in 50 mM Na2HPO4 pH 7.6, 10 mM imidazole, 500 mM NaCl, 1% Igepal CA-630, 10% glycerol, and 1× Complete™ Protease Inhibitor (Roche) by two freeze-thaw cycles, His(6)-(SEQ ID NO:21)-DNMT1 was bound to Ni-NTA agarose (Qiagen) for 1.5 hours at 4° C. The supernatant was removed, and the beads were washed twice with 50 mM Na2HPO4 pH 7.6, 20 mM imidazole, 500 mM NaCl, 10% glycerol, and 1× Complete™ Protease Inhibitor to remove contaminating proteins. The beads were then washed twice with 50 mM Na2HPO4 pH 7.6, 10 mM NaCl, 10% glycerol, and 1× Complete™ Protease Inhibitor to remove excess salt. His(6)-(SEQ ID NO:21)-DNMT1 was eluted from the Ni-NTA agarose by adding 50 mM Na2HPO4 pH 7.6, 250 mM imidazole, 10 mM NaCl, 10% glycerol, and 1× Complete™ Protease Inhibitor. Spin dialysis was used to concentrate the protein and exchange the buffer 50 mM Na2HPO4 pH 7.6, 10 mM NaCl, 1 mM EDTA, 1 mM DTT, 20% glycerol, and 1× Complete™ Protease Inhibitor. Protein concentration was determined using the BCA assay (Pierce). Recombinant DNMT1 was stored at −80° C. until further use.
DNA methyltransferase activity assays were performed by combining 100 nM His(6)-(SEQ ID NO:21)-DNMT with 5′-biotinylated synthetic hemi-methylated or unmethylated oligonucleotide substrate containing 1 μM CG (Top Strand 5′-[…]-3′ (SEQ ID NO:18), Bottom Strand 5′-[…]-3′ (SEQ ID NO:19)) and 1 μM S-adenosyl-L-[methyl-^3H]Methionine™ (Amersham TRK581 60-85 Ci/mmol). After incubation at 37° C. for 30 minutes, reactions were stopped by adding one volume of 10 mM cold S-adenosyl-L-Methionine™ (Sigma). To purify the oligonucleotides, reactions will be added to a SAm^2® 96 Biotin Capture Plate (Promega). The plate was washed 7 times with PBS+2M NaCl and 3 times with dH20 to remove His(6)-(SEQ ID NO:21)-DNMT1 and S-adenosyl-L-methionine.

Another test relates to ovarian ca. Particulars: cited from earlier work.
The next test deals with breast ca. Particulars: cited from earlier work.
The next test deals with colon ca. Conditions: cited from earlier work.
A further test deals with melanoma. Conditions: cited from earlier work.
Another test relates to lung ca. Particulars: n 15, 200-600 mg/M^2 over 1 day iv; cited from earlier work.
The test system of the next test is prostate ca. Conditions: n 14, 225 mg/M^2 over 1 day iv; cited from earlier work.
In another test the target is recombinant DNMT3a (Homo sapiens (Human), UniProt Q9Y6K1). In words: DNA methyltransferase activity assay with recombinant DNMT3a. The format is biochemical. Particulars: read-out: Ki for inhibition of DNMT3a.
recombinant DNMT3a, sequence (Q9Y6K1 whole entry, looked up): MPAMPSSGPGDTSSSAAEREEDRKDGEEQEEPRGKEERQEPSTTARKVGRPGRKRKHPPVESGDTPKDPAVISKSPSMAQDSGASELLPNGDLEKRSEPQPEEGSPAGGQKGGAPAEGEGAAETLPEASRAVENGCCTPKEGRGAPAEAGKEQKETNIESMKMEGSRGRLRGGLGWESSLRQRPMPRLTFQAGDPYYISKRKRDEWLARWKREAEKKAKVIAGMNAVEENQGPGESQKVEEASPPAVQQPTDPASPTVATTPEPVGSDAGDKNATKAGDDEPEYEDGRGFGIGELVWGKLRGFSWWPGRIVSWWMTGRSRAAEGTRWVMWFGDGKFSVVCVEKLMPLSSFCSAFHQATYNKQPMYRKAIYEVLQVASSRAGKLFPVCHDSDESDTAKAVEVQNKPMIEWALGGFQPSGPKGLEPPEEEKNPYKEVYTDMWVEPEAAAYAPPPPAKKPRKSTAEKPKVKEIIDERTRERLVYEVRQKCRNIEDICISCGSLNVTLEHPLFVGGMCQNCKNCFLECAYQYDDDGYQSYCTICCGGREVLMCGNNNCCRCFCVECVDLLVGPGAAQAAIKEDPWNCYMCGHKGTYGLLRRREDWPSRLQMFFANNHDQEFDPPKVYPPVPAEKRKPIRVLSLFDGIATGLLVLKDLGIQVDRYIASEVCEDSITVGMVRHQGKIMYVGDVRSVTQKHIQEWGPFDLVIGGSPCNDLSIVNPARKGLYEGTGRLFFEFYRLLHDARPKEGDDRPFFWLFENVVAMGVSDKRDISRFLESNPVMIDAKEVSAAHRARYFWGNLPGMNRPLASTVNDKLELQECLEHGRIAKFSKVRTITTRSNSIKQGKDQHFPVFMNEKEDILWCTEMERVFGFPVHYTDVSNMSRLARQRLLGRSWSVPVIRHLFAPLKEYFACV
Description: as §3
His(6)-(SEQ ID NO:21)-DNMT3a and His(6)-(SEQ ID NO:21)-DNM3b2 were expressed and purified in Sf9 cells as described above with the following modifications. […]
DNA methyltransferase activity assays were performed by combining 100 nM His(6)-(SEQ ID NO:21)-DNMT with 5′-biotinylated synthetic hemi-methylated or unmethylated oligonucleotide substrate containing 1 μM CG (Top Strand 5′-[…]-3′ (SEQ ID NO:18), Bottom Strand 5′-[…]-3′ (SEQ ID NO:19)) and 1 μM S-adenosyl-L-[methyl-^3H]Methionine™ (Amersham TRK581 60-85 Ci/mmol). […] After drying the plate, 30 μl Microscint-PS™ scintillation fluid (Packard) was added to each well, and tritium was quantitated using the TopCount™ NXT liquid scintillation counter (Packard). […]

Test [2] deals with MBD2_MBD binding to 5-mCpG containing DNA (Homo sapiens (Human), UniProt Q9UBB5). As to the kind of experiment: DNA-protein binding assay, MBD2_MBD to methylated oligonucleotide. Particulars: His-tagged MBD2_MBD. The protocol: as §1, §2
MBD2_MBD binding to 5-mCpG containing DNA, sequence (Q9UBB5 145-213): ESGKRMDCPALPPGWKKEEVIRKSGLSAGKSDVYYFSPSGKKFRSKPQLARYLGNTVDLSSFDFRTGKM
A further test relates to mesothelioma. Particulars: cited from earlier work.
Setting [3] is: n 4, 275-850 mg/M^2 over 10 days sq.

Where two headings read alike, the source gives them in different places.

MeCP2_MBD binding to 5-mCpG containing DNA, sequence (P51608 90-162): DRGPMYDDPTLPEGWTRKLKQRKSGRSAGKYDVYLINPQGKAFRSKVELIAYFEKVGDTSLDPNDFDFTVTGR

As for `COc1ccccc1-c1nc(-c2cccc([N+](=O)[O-])c2)no1` [(X)], in [1], the IC50 is above 200 µM. In addition, the “DNMT1 Inhibition (IC50 in μM)” value on recombinant DNMT1 is reported as “No Inhibition”.
With `Nc1ncn([C@@H]2O[C@H](CO)[C@@H](O)[C@H]2O)c(=O)n1` [Compound 5-aza-C, 5-az-cytidine], the “% Response” value is reported as 25% with ovarian ca (setting [3]); 17% in the test with breast ca (1.6 mg/kg over 10 days iv); 25% in the test on breast ca (setting [3]); 63% in the test on breast ca (n 11, 300-700 mg/M^2 over 8 days iv); 6% in the test with breast ca (n 31, 600 mg/M^2 over 10 days iv); 0% with colon ca (n 4, 275-850 mg/M^2 over 8 days sq). Moreover, the “% Response” value in the test on colon ca (n 6, 300-700 mg/M^2 over 10 days iv) is recorded as 33%; with colon ca (n 27, dose not given), 4%; with melanoma (n 5, 300-700 mg/M^2 over 8 days iv), 40%.
Turning to `COc1ccc(NC(=O)Nc2cccc3cccnc23)cc1` [(XXIV)], the IC50 in test [1] came to 2.81 µM.
Still for that read-out and setting: under `c1ccc(Nc2nc(-c3ccccn3)cs2)nc1` [(I)] stands 10.5 µM.
For `Clc1ccc(C2NN=C(c3ccccc3)S2)cc1` (stereo not drawn) [(XXI)], the IC50 in test [1] is 33.9 µM. Further, the “DNMT1 Inhibition (IC50 in μM)” value at recombinant DNMT1 is “No Inhibition”.
The matching figures for `Cn1c2ccccc2n2cc(-c3ccc([N+](=O)[O-])cc3)nc12` [(III)]: above 200 µM and “No Inhibition”.
For `Nc1ncn([C@H]2C[C@H](O)[C@@H](CO)O2)c(=O)n1` [Compound 5-aza-dC, 5-aza-deoxycytidine], the “% Response” value in the test with lung ca was 20%; with ovarian ca (n 24, 225 mg/M^2 over 10 days iv), 8%; with colon ca (n 42, 225 mg/M^2 over 1 day iv), 0%; with melanoma (n 18, 225 mg/M^2 over 1 day iv), 0%; in the test with prostate ca, 16%.
For `Oc1cccc(Nc2nc(-c3ccccn3)cs2)c1` [(II)], the IC50 in test [1] was above 200 µM. In addition, at recombinant DNMT1, the “DNMT1 Inhibition (IC50 in μM)” value is “No Inhibition”.
Consider `CCN(CC)CCNC(=O)c1ccc(N)cc1` [procainamide, reference compound], for which the Ki worked out at 1400 µM on recombinant DNMT3a and 7.2 µM on recombinant DNMT1 (mixed mechanism, read-out: Ki for inhibition of DNMT1).
In the case of `COc1cc(O)cc(Br)c1/C=N/Nc1nc2ccccc2s1` [(XVIII)], in test [1], the IC50 is above 200 µM. For the same compound, the “DNMT1 Inhibition (IC50 in μM)” value at recombinant DNMT1 is “No Inhibition”.
Consider `COc1ccc([N+](=O)[O-])cc1C1NN=C(c2ccccc2)S1` (stereo not drawn) [(XIX)], for which the “DNMT1 Inhibition (IC50 in μM)” value at recombinant DNMT1 is “No Inhibition”. Also, the “MBD2 Binding Inhibition (IC50 in μM)” value in [2] is reported as “In- conclusive”.
`NC1=NCN([C@@H]2O[C@H](CO)[C@@H](O)[C@H]2O)C(=O)N1` [dh-5-aza-C]: the “% Response” value is given as 17% in the test on mesothelioma (n 29, 1500 mg/M^2 over 5 days cl); 17% in the test with mesothelioma (n 41, 1500 mg/M^2 over 5 days cl); 20% with melanoma (n 40, 5 g/M^2 over 1 day cl).
In the case of `Oc1ccc(C2NN=C(c3ccccc3)S2)cc1` (stereo not drawn) [(XVII)], the IC50 in test [1] amounted to 16.9 µM. On recombinant DNMT1, the “DNMT1 Inhibition (IC50 in μM)” value is “No Inhibition”.
Take `CCOc1ccc(Nc2nc(-c3ccccn3)cs2)cc1` [(XXV)]: the IC50 in test [1] is above 200 µM.
Consider `Nc1cccc(-c2nnc(-c3ccccc3)o2)c1` [(XXIII)], for which the IC50 in test [1] is 8.59 µM. For the same compound, on recombinant DNMT1, the “DNMT1 Inhibition (IC50 in μM)” value was “No Inhibition”.
The matching figures for `OC1(C(F)(F)F)CC(c2ccccc2)=NN1C(=S)c1ccccc1` (stereo not drawn) [(XX)]: above 200 µM and “No Inhibition”.
The corresponding values for `Oc1ccc2ccccc2c1C1NN=C(c2ccccc2)S1` (stereo not drawn) [(XXII)] are 0.61 µM and “No Inhibition”.

Source of the values: US9034574B2, “Agents for reversing epigenetic silencing of genes” (The Johns Hopkins University, priority 2006, dated 2015).
